Results published in paper PMC5976239 (Journal of medicinal chemistry, 2017).
≈ marks a conversion by molar mass, not a printed value. Like-named read-outs stand apart in the source and are kept apart here.

Legend:
[1] = test system: C. albicans ATCC MYA-1003(R) (G); experiment: MIC determination by in vitro antifungal assay; format: cell-based; conditions: Candida albicans, 48 h
[2] = test system: C. albicans ATCC 10231 (strain A); experiment: Time-kill assay; format: cell-based, Candida albicans; conditions: 24 h, compound 20 at 4× MIC, VOR at 1× and 4× MIC
[3] = test system: C. albicans ATCC 90819(R) (D); experiment: MIC determination by in vitro antifungal assay; format: cell-based; conditions: Candida albicans, ATCC90819, 48 h
A549 = experiment: In vitro cytotoxicity assay; format: cell-based; conditions: 24 h
[4] = test system: C. albicans ATCC 64124 (strain B) biofilms; experiment: Biofilm assay
HEK-293 = experiment: In vitro cytotoxicity assay; format: cell-based; conditions: 24 h
BEAS-2B = experiment: In vitro cytotoxicity assay; format: cell-based; conditions: 24 h
[5] = test system: Candida albicans ATCC 10231 (A); experiment: MIC determination in the presence and absence of FBS; format: cell-based; conditions: strains A, J, and L; +10% FBS versus no FBS
[6] = test system: Aspergillus flavus ATCC MYA-3631 (K); experiment: MIC determination against filamentous fungi; format: cell-based; conditions: 48 h, read-out: MIC (MIC-0)
[7] = test system: C. albicans ATCC 64124(R) (B); experiment: MIC determination by in vitro antifungal assay; format: cell-based; conditions: Candida albicans, ATCC64124, 48 h
[8] = test system: C. parapsilosis ATCC 22019 (strain J); experiment: Time-kill assay; format: cell-based, Candida parapsilosis; conditions: 24 h, at up to 8× MIC
[9] = test system: C. albicans ATCC 10231 (strain A); experiment: Membrane permeabilization assay using propidium iodide staining; format: cell-based, Candida albicans; conditions: 1 h at 35 °C; 20 and 26 at 4 × MIC, KANB (C14) at 2 × MIC ([…]), FLC at 7.8 µg/mL
Hemolytic activity assay = format: cell-based; conditions: mouse, murine red blood cells (mRBCs)
[10] = test system: C. glabrata ATCC 2001 (strain H); experiment: Time-kill assay; format: cell-based, Candida glabrata; conditions: 24 h, compound 22 at 4× MIC, VOR at 1× and 4× MIC
[11] = test system: C. albicans ATCC MYA-2876(S) (C); experiment: MIC determination by in vitro antifungal assay; format: cell-based; conditions: Candida albicans, 48 h, read-out: MIC (MIC-2)
[12] = test system: C. albicans ATCC MYA-2310(S) (E); experiment: MIC determination by in vitro antifungal assay; format: cell-based; conditions: Candida albicans, 48 h, read-out: MIC (MIC-2)
[13] = test system: C. albicans ATCC MYA-1237(R) (F); experiment: MIC determination by in vitro antifungal assay; format: cell-based; conditions: Candida albicans, 48 h, read-out: MIC (MIC-2)

For `CCCCCCCCCCN1CCN(CC(O)(Cn2cncn2)c2ccc(F)cc2F)CC1` (stereo not shown) [Compound 20, 2-(2,4-Difluorophenyl)-1-(1H-1,2,4-triazol-1-yl)-3-(4-decylpiperazine)propan-2-ol], the MIC ([1]; read-out: MIC (MIC-0)) was 3.9 µg/mL (≈ 8.41 µM), the “fungistatic or fungicidal activity (time-kill)” value [2] was “fungicidal” and the MIC ([3]; read-out: MIC (MIC-0)) was 3.9 µg/mL (≈ 8.41 µM). The “toxicity to mammalian cells (in words)” value (A549) was “no toxicity at up to 7.8 µg/mL”, the “increase in MIC in biofilms (SMIC50 and SMIC80 versus MIC in liquid cultures)” value [4] was 4–16 fold and the “toxicity to mammalian cells (in words)” value (HEK-293; 18 and 20 at 7.8 µg/mL) was “some toxicity”. For the same compound, the “toxicity to mammalian cells (in words)” value (BEAS-2B; 18 and 20 at 7.8 µg/mL) was “some toxicity”, the “antifungal activity in the presence of FBS (in words)” value [5] was “retained their full antifungal activity” and the MIC [6] was 0.24 µg/mL (≈ 0.518 µM). The MIC ([7]; read-out: MIC (MIC-0)) was 3.9 µg/mL (≈ 8.41 µM), the “fungistatic or fungicidal activity (time-kill)” value [8] was “fungistatic” and the “propidium iodide (PI) dye uptake by fungal cells” value [9] was “neither compound 20 nor 26 (at 4 × MIC) induced cellular uptake of PI dye”.

In the case of `CCCCCCCCCCCCN1CCN(CC(O)(Cn2cncn2)c2ccc(F)cc2F)CC1` (stereo not shown) [Compound 22, 2-(2,4-Difluorophenyl)-1-(1H-1,2,4-triazol-1-yl)-3-(4-dodecylpiperazine)propan-2-ol], the hemolysis at 60 min, 7.8 µg/mL (Hemolytic activity assay) is reported as greater than 50%, the cell survival (A549; 7.8 µg/mL) is reported as “less than 40%” and the “fungistatic or fungicidal activity (time-kill)” value [10] is reported as “fungicidal”. For the same compound, the “increase in MIC in biofilms (SMIC50 and SMIC80 versus MIC in liquid cultures)” value [4] was 1–2 fold, the cell survival (HEK-293; 7.8 µg/mL) was “less than 40%” and the cell survival (BEAS-2B; 7.8 µg/mL) was “less than 40%”. For the same compound, the “antifungal activity in the presence of FBS (in words)” value [5] was “retained their full antifungal activity” and the “fungistatic or fungicidal activity (time-kill)” value [8] was “fungistatic”.

For `C[C@@H](c1ncncc1F)[C@](O)(Cn1cncn1)c1ccc(F)cc1F` [VOR, voriconazole, reference compound], the MIC ([1]; read-out: MIC (MIC-2)) was 1.95 µg/mL (≈ 5.58 µM), the “fungistatic or fungicidal activity (time-kill)” value [2] was “fungistatic” and the MIC [11] was 1.95 µg/mL (≈ 5.58 µM). The MIC [12] was 0.975 µg/mL (≈ 2.79 µM), the MIC ([3]; read-out: MIC (MIC-2)) was 1.95 µg/mL (≈ 5.58 µM) and the “fungistatic or fungicidal activity (time-kill)” value [10] was “fungistatic”. For the same compound, the MIC [13] was 7.8 µg/mL (≈ 22.3 µM) and the MIC ([7]; read-out: MIC (MIC-2)) was 3.9 µg/mL (≈ 11.2 µM).
